According to US20250340510A1, “Substituted Phenylbenzenesulfonamide Derivatives and Uses Thereof” (Nine Square Therapeutics Corporation, priority 2022, published 2025):
pEC50: −log10 of the molar value.

Target: TRPML1 (Homo sapiens, UniProt Q9GZU1)
Assay: Calcium flux in HEK293 overexpressing TRPML1 plasma membrane variant (FLIPR, Calcium 6 dye)
Type: cell-based
Settings: HEK293/TRPML1-PM clone A5 cells; 4-parameter logistic fit; read-out: TRPML1 calcium flux (FLIPR) dose response: EC50
From the text: Example B1. Calcium Flux in HEK293 Overexpressing TRPML1 Plasma Membrane Variant—Calcium 6 Dye
Cells: HEK293/TRPML1-PM clone A5, clonal cell line containing mutant TRPML1 (both N- and C-terminal dileucine targeting motifs deleted) that localizes to the plasma membrane
Plates: Perkin Elmer Viewplate cat. #6007460, black optically clear, tissue culture treated 384-well plate
Calcium dye: Molecular Devices FLIPR Calcium 6 Assay Kit, cat. #R8190 or Fluo-4 Direct from Thermo Fisher, cat. #F10471
Tips: Molecular Devices 384-well FLIPR Tetra black tips, cat. #9000-0764 Example B1.2 Method
HEK293/TRPML1-PM clone A5 cells were trypsinized from flasks, counted, then diluted in media to 15,000 cells per 25 μL, and seeded into a black, 384-well viewplate, and cultured overnight.
One vial of calcium 6 dye was diluted with 10 mL of assay buffer (HBSS+20 mM HEPES pH 7.4) and 25 μL of the dilution was added per well to the cells.
After incubating for 2 hours at 37° C., the plate was moved to the FLIPR in the read position.
The compounds were diluted in EMEM with 0.125% FBS to 5× concentration and loaded in a 384-well plate according to the desired plate map for the assay, including DMSO alone and carbachol controls, then the plate was moved to the FLIPR in the source 2 position.
A box of tips was placed in the source 1 position within the FLIPR to complete the assay set up.
Once the run was started, an initial baseline fluorescent measurement was performed for 10 seconds (470-495 nm excitation and 515-575 nm emission) prior to adding the compounds.
12.5 μL of 5× test compound, DMSO alone, or carbachol were added via the FLIPR and real-time fluorescence measurements were performed for an additional 170 seconds with 1 read per second.
The data was normalized to baseline by calculating maximum fluorescence minus minimum fluorescence and plotted as response (fold) over the baseline versus log ([…] concentration). The EC50 was determined using a 4-parameter logistic curve fit in Graphpad Prism 9.

Sequence of TRPML1 (Q9GZU1 17-572 limits assumed): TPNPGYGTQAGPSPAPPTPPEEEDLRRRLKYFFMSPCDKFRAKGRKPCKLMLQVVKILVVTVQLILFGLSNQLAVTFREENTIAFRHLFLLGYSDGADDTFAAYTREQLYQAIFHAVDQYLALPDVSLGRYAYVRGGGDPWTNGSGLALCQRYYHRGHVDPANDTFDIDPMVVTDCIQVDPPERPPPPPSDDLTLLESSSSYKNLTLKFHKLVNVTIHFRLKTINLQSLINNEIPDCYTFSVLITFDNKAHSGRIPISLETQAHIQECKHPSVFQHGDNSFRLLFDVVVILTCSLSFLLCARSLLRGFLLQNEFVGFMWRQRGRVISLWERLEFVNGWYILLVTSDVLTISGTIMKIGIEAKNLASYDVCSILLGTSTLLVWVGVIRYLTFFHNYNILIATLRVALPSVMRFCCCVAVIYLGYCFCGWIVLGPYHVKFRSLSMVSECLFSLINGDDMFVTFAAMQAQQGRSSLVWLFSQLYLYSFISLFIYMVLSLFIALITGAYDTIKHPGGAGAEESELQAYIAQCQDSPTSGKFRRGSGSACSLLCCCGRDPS

| Compound | pEC50 |
| --- | --- |
| CN(C)S(=O)(=O)c1ccc(S(=O)(=O)Nc2ccccc2N(C=O)Cc2cncs2)cc1 [Compound 61, N-(2-((4-(N,N-dimethylsulfamoyl)phenyl)sulfonamido)phenyl)-N-(thiazol-5-ylmethyl)formamide] | < 4.52 |
| Cc1ncc(F)cc1CN(C)c1ccccc1NS(=O)(=O)c1ccc(S(=O)(=O)N(C)C)cc1 [Compound 75, N1-(2-(((5-fluoro-2-methylpyridin-3-yl)methyl)(methyl)amino)phenyl)-N4,N4-dimethylbenzene-1,4-disulfonamide] | 5.67 |
| CN(c1ccccc1)c1ccccc1NS(=O)(=O)c1ccc(S(=O)(=O)N(C)C)cc1 [Compound 27, N1,N1-dimethyl-N4-(2-(methyl(phenyl)amino)phenyl)benzene-1,4-disulfonamide] | < 5.00 |
| CN(Cc1cscn1)c1ccccc1NS(=O)(=O)c1ccc(S(=O)(=O)N(C)C)cc1 [Compound 45, N1,N1-dimethyl-N4-(2-(methyl(thiazol-4-ylmethyl)amino)phenyl)benzene-1,4-disulfonamide] | 5.69 |
| CN(CCCn1cccn1)c1ccccc1NS(=O)(=O)c1ccc(S(=O)(=O)N(C)C)cc1 [Compound 105, N1-(2-((3-(1H-pyrazol-1-yl)propyl)(methyl)amino)phenyl)-N4,N4-dimethylbenzene-1,4-disulfonamide] | 5.36 |
| COCCCN(C)c1ccccc1NS(=O)(=O)c1ccc(S(=O)(=O)N(C)C)cc1 [Compound 34, N1-(2-((3-methoxypropyl)(methyl)amino)phenyl)-N4,N4-dimethylbenzene-1,4-disulfonamide] | 5.49 |
| CN(Cc1cn2c(n1)CCC2)c1ccccc1NS(=O)(=O)c1ccc(S(=O)(=O)N(C)C)cc1 [Compound 83, N1-(2-(((6,7-dihydro-5H-pyrrolo[1,2-a]imidazol-2-yl)methyl)(methyl)amino)phenyl)-N4,N4-dimethylbenzene-1,4-disulfonamide] | < 4.52 |
| CN(Cc1cn(C)cn1)c1ccccc1NS(=O)(=O)c1ccc(S(=O)(=O)N(C)C)cc1 [Compound 59, N1,N1-dimethyl-N4-(2-(methyl((1-methyl-1H-imidazol-4-yl)methyl)amino)phenyl)benzene-1,4-disulfonamide] | 5.65 |
| Cc1cc(CN(C)c2ccccc2NS(=O)(=O)c2ccc(S(=O)(=O)N(C)C)cc2)cc(C)n1 [Compound 48, N1-(2-(((2,6-dimethylpyridin-4-yl)methyl)(methyl)amino)phenyl)-N4,N4-dimethylbenzene-1,4-disulfonamide] | 5.13 |
| CN(CC1CCC(C)(C)OC1)c1ccccc1NS(=O)(=O)c1ccc(S(=O)(=O)N(C)C)cc1 (centres unmarked) [Compound 32, N1-(2-(((6,6-dimethyltetrahydro-2H-pyran-3-yl)methyl)(methyl)amino)phenyl)-N4,N4-dimethylbenzene-1,4-disulfonamide] | 6.09 |
| CN(Cc1ccncc1)c1ccccc1NS(=O)(=O)c1ccc(S(=O)(=O)N(C)C)cc1 [Compound 8, N1,N1-dimethyl-N4-(2-(methyl(pyridin-4-ylmethyl)amino)phenyl) benzene-1,4-disulfonamide] | 5.43 |
| CCCN(C)c1ccccc1NS(=O)(=O)c1ccc(S(=O)(=O)N(C)C)cc1 [Compound 16, N1,N1-dimethyl-N4-(2-(methyl(propyl)amino)phenyl)benzene-1,4-disulfonamide] | 5.63 |
| CN(Cc1cccnc1)c1ccccc1NS(=O)(=O)c1ccc(S(=O)(=O)N(C)C)cc1 [Compound 57, N1,N1-dimethyl-N4-(2-(methyl(pyridin-3-ylmethyl)amino)phenyl)benzene-1,4-disulfonamide] | 5.34 |
| COCCCCN(C)c1ccccc1NS(=O)(=O)c1ccc(S(=O)(=O)N(C)C)cc1 [Compound 33, N1-(2-((4-methoxybutyl)(methyl)amino)phenyl)-N4,N4-dimethylbenzene-1,4-disulfonamide] | 5.56 |
| CC(C)CN(C)c1ccccc1NS(=O)(=O)c1ccc(S(=O)(=O)N(C)C)cc1 [Compound 7, N1-(2-(isobutyl(methyl)amino)phenyl)-N4,N4-dimethylbenzene-1,4-disulfonamide] | 6.29 |
| Cc1nn(C)cc1CN(C)c1ccccc1NS(=O)(=O)c1ccc(S(=O)(=O)N(C)C)cc1 [Compound 50, N1-(2-(((1,3-dimethyl-1H-pyrazol-4-yl)methyl)(methyl)amino)phenyl)-N4,N4-dimethylbenzene-1,4-disulfonamide] | 5.18 |
| Cc1ncsc1CN(C)c1ccccc1NS(=O)(=O)c1ccc(S(=O)(=O)N(C)C)cc1 [Compound 51, N1,N1-dimethyl-N4-(2-(methyl((4-methylthiazol-5-yl)methyl)amino)phenyl)benzene-1,4-disulfonamide] | 5.52 |
| CN(Cc1ccc(F)cn1)c1ccccc1NS(=O)(=O)c1ccc(S(=O)(=O)N(C)C)cc1 [Compound 43, N1-(2-(((5-fluoropyridin-2-yl)methyl)(methyl)amino)phenyl)-N4,N4-dimethylbenzene-1,4-disulfonamide] | 6.06 |
| CN(Cc1cnc2n1CCC2)c1ccccc1NS(=O)(=O)c1ccc(S(=O)(=O)N(C)C)cc1 [Compound 79, N1-(2-(((6,7-dihydro-5H-pyrrolo[1,2-a]imidazol-3-yl)methyl)(methyl)amino)phenyl)-N4,N4-dimethylbenzene-1,4-disulfonamide] | 4.55 |
| CN(CCN1CCOCC1)c1ccccc1NS(=O)(=O)c1ccc(S(=O)(=O)N(C)C)cc1 [Compound 15, N1,N1-dimethyl-N4-(2-(methyl(2-morpholinoethyl)amino)phenyl) benzene-1,4-disulfonamide] | < 5.00 |

Now from value to molecule:

| pEC50 | Compound |
| --- | --- |
| 5.67 | CN(c1cc(C#N)ccc1NS(=O)(=O)c1ccc(S(=O)(=O)N(C)C)cc1)C1CCCCC1 [Compound 88, N1-(4-cyano-2-(cyclohexyl(methyl)amino)phenyl)-N4,N4-dimethylbenzene-1,4-disulfonamide] |
| 5.66 | Cc1cccc(N(C)C2CCCCC2)c1NS(=O)(=O)c1ccc(S(=O)(=O)N(C)C)cc1 [Compound 36, N1-(2-(cyclohexyl(methyl)amino)-6-methylphenyl)-N4,N4-dimethylbenzene-1,4-disulfonamide] |
| < 4.52 | CN(c1cccc(C#N)c1NS(=O)(=O)c1ccc(S(=O)(=O)N(C)C)cc1)C1CCCCC1 [Compound 86, N1-(2-cyano-6-(cyclohexyl(methyl)amino)phenyl)-N4,N4-dimethylbenzene-1,4-disulfonamide] |
| 7.06 | CCN(c1ccccc1NS(=O)(=O)c1ccc(S(=O)(=O)N(C)C)cc1)C1CCCCC1 [Compound 60, N1-(2-(cyclohexyl(ethyl)amino)phenyl)-N4,N4-dimethylbenzene-1,4-disulfonamide] |
| 6.39 | CN(c1ccccc1NS(=O)(=O)c1ccc(S(=O)(=O)N(C)C)cc1)C1CC(F)(F)C1 [Compound 40, N1-(2-((3,3-difluorocyclobutyl) (methyl)amino)phenyl)-N4,N4-dimethylbenzene-1,4-disulfonamide] |
| 6.62 | CN(c1c(Cl)cccc1NS(=O)(=O)c1ccc(S(=O)(=O)N(C)C)cc1)C1CCCCC1 [Compound 38, N1-(3-chloro-2-(cyclohexyl(methyl)amino)phenyl)-N4,N4-dimethylbenzene-1,4-disulfonamide] |
| 5.68 | CN(CC1CCOCC1)c1ccccc1NS(=O)(=O)c1ccc(S(=O)(=O)N(C)C)cc1 [Compound 11, N1,N1-dimethyl-N4-(2-(methyl((tetrahydro-2H-pyran-4-yl)methyl)amino)phenyl)benzene-1,4-disulfonamide] |
| 5.66 | CN(c1cc(F)ccc1NS(=O)(=O)c1ccc(S(=O)(=O)N(C)C)cc1)C1CCCCC1 [Compound 4, N1-(2-(cyclohexyl(methyl)amino)-4-fluorophenyl)-N4,N4-dimethylbenzene-1,4-disulfonamide] |
| 6.57 | CN(c1ccccc1NS(=O)(=O)c1ccc(S(=O)(=O)N(C)C)cc1)C1CCC(F)(F)CC1 [Compound 41, N1-(2-((4,4-difluorocyclohexyl) (methyl)amino)phenyl)-N4,N4-dimethylbenzene-1,4-disulfonamide] |
| 6.55 | CN(c1c(NS(=O)(=O)c2ccc(S(=O)(=O)N(C)C)cc2)cccc1C(F)(F)F)C1CCCCC1 [Compound 109, N1-(2-(cyclohexyl(methyl)amino)-3-(trifluoromethyl)phenyl)-N4,N4-dimethylbenzene-1,4-disulfonamide] |
| 5.86 | CN(CC1CCCO1)c1ccccc1NS(=O)(=O)c1ccc(S(=O)(=O)N(C)C)cc1 (centres unmarked) [Compound 107, N1,N1-dimethyl-N4-(2-(methyl((tetrahydrofuran-2-yl)methyl)amino)phenyl)benzene-1,4-disulfonamide] |
| 5.71 | CN(c1ccccc1NS(=O)(=O)c1ccc(S(=O)(=O)N(C)C)cc1)C1CCCCC1(F)F (centres unmarked) [Compound 103, N1-(2-((2,2-difluorocyclohexyl) (methyl)amino)phenyl)-N4,N4-dimethylbenzene-1,4-disulfonamide] |
